Results: patent US20250382657A1, “METHODS FOR MAPPING BINDING SITES OF COMPOUNDS” (Cambridge Enterprise Limited, priority 2022, published 2025)
Blank lines part the entries; values can stand above or below the molecule they belong to.

Tests used:
K562 cells = experiment: Dox-bio1 Chemmap in Tucidinostat-treated K562 cells; format: cell-based, human; conditions: Tucidinostat 1 μM, 72 h
Text: Mycoplasma-free human chronic myelogenous leukemia K562 cells (RRID:CVCL_0004) derived from a person were purchased from ATCC and cultured in RPMI 1640 (Gibco, 21875034) supplemented with 10% heat-inactivated fetal bovine serum (FBS, Gibco, A3840401). Human bone osteosarcoma epithelial U-2 OS cells (RRID:CVCL_0042) derived from a moderately differentiated sarcoma of the tibia of a person osteosarcoma were obtained from ATCC and cultured in DMEM (Gibco, 41966029) supplemented with 10% FBS. Both cell lines were grown in accordance with ENCODE cell culture protocols and periodically tested for mycoplasma contamination and identity confirmed by short tandem repeat (STR) typing. HDAC inhibitors (HDACi) were prepared at 10 mM as stock solution in DMSO. Cells were treated with HDACi dissolved to 1 μM final concentration or an equal concentration of vehicle (0.1% DMSO) for 72 hs.
Cell preparation. U-2 OS cells were detached using accutase and immediately quenched using complete culture media. U-2 OS and K562 suspension cells were harvested by centrifugation and fixed in 0.1% formaldehyde (Thermo Scientific, 28906) in PBS for 2 min at room temperature, followed by quenching with glycine to a final concentration of 75 mM. […]

BRD4 [1] = biological target: T1, BRD4 (Homo sapiens, UniProt O60885); conditions: K562 cells; published data; cited from earlier work
T1 construct: U-2 OS and K562 suspension cells were harvested by centrifugation and fixed in 0.1% formaldehyde; endogenous in cells; host or cells: K562 (human leukaemia) and U-2 OS cells

dsDNA = experiment: FRET-melting assay; format: binding; conditions: 1 μM; negative control dsDNA; n=2
Procedure: 400 nM FAM-TAMRA dual-labelled oligonucleotides (Biomers) were annealed in assay buffer (60 mM potassium cacodylate, pH=7.4) at 95° C. for 5 min followed by gradually cooling to 20° C. A series of probe concentrations were prepared in a 8-well strip tube: 150 μL of 6 μM ligand in assay buffer was prepared as the initial concentration. Subsequent serial dilutions were made by adding 100 μL of probe solutions to 50 μL of assay buffer, resulting in 12 concentrations including a control (1% DMSO). 25 μL per solutions were transferred to 96-well plate, followed by adding 25 μL of annealed oligonucleotide solutions to each well. The plate was then sealed with an adhesive transparent cover and shaken gently for 10 min at room temperature. Measurements of restoring FAM signal were recorded on a Bio-Rad CFX96 Touch Real-Time PCR Detection System employing a temperature gradient from 25° C. to 95° C. at 0.5° C./min. Melting temperatures were determined by the first derivative maxima of relative fluorescence unit (RFU) value against […], and ΔTm was calculated by baseline correction of melting temperatures subtracting control group. A one-site binding model in GraphPad Prism 7 was utilised to fit FRET Tm curves. Mean was calculated from two replicates.

BRD4 [2] = biological target: T1, BRD4; experiment: Chemmap genome-wide mapping of JQ1 binding sites, compared with BRD4 CUT&Tag; conditions: 150,000 K562 cells; JQ1-bio probe
Procedure: BRD4 CUT&Tag was performed as described before (H.S. Kaya-Okur, et al. Nat. Protoc., 15 (2020) e23641). Briefly, cells were incubated with activated concanavalin A-coated magnetic beads (Bangs Labs, BP531). The bead-bound cells were permeabilized and incubated with anti-BRD4 (E2A7X) rabbit antibody (Cell Signalling Technology, 13440), followed by rabbit anti-mouse IgG antibody (Antibodies-Online, ABIN101961, RRID:AB_10775589). Diluted pA-Tn5 adapter complex was then added followed by the tagmentation reaction. Extracted DNA fragments were used for library preparation and Illumina sequencing.

genomic DNA = experiment: Chemmap genome-wide mapping of biotinylated doxorubicin binding sites; set-up: species or system human; conditions: K562 cells
Procedure: (§1) Cell preparation. U-2 OS cells were detached using accutase and immediately quenched using complete culture media. U-2 OS and K562 suspension cells were harvested by centrifugation and fixed in 0.1% formaldehyde (Thermo Scientific, 28906) in PBS for 2 min at room temperature, followed by quenching with glycine to a final concentration of 75 mM. Fixed cells were collected by centrifugation at 600×g for 4 min, followed by resuspension in cold wash buffer (20 mM HEPES pH7.5, 150 mM NaCl and 0.5 mM spermidine (Sigma, S0266)) in nuclease-free water supplemented with a complete Protease Inhibitor, EDTA-free (Sigma, 11873580001). (Note: For Chemmap of G4 ligands NaCl was replaced by equivalent concentrations of KCl in all buffers to maintain G4 stability. For optimal results, the concentration of cells needs to be adjusted based on target abundance and relative affinity of the probes. We employed cells at 1500 cells/μL (JQ1-bio) and 6000 cells/μL (G4 ligands and biotinylated doxorubicin))
Probe-1st Ab complex assembly. Compound stock solution in DMSO was diluted to 10 μM in antibody buffer (2 mM EDTA, 0.1% BSA (Sigma, A8577), 0.05% digitonin (EMD Millipore, 300410) in wash buffer). For 5 samples, 20 μL probe solution (10 μM) and 16.7 μL anti-biotin (D5A7) Rabbit mAb (Cell Signaling Technology, 5597, concentration is ˜10 μM) were added to 200 μL antibody buffer and incubated on ice for 1 h to perform a complex at high concentration (probe in excess 1.2:1 to avoid non-specific antibody binding). […]
Bead capture. For 5 samples, 50 μL (JQ1-bio) or 75 μL (G4 ligands and biotinylated Doxorubicin) concanavalin A beads (Bangs Labs, BP531) were washed twice in 1 mL binding buffer (20 mM HEPES pH 7.5, 10 mM KCl, 1 mM CaCl2, 1 mM MnCl2 in nuclease-free water) and resuspended in 75 μL binding buffer. 100 µL of cell suspension were incubated with 10 μL pre-washed concanavalin A beads at 25° C. for 10 min at 600 rpm. Beads-bound cells were gently washed twice with wash buffer, before resuspending in 100 μL probe-1st Ab solution and incubating at 4° C. overnight at 600 rpm.
2nd Ab-Tn5 transposome complexes assembly. For 5 samples, 2.5 μL 2nd Ab (Antibodies-Online, ABIN101961, RRID:AB_10775589) and 5 μL pA-Tn5 were added to 200 μL Dig-300 buffer (20 mM HEPES pH 7.5, 300 mM NaCl, 0.5 mM spermidine, 0.01% digitonin in nuclease-free water supplemented with Complete Protease Inhibitor, EDTA-free) and incubated on ice for 1 h. 300 μL antibody buffer were added to the 2nd-Tn5 complexes solution. (2nd Ab-Tn5 complexes at a ratio of 2:1).
Tagmentation. Cells were washed 3× with 500 μL Dig-wash buffer (0.05% digitonin in wash buffer) and resuspended in 100 μL 2nd Ab-Tn5 transposome solution and incubated at 25° C. for 1 h at 600 rpm. […]

DNA G-quadruplex [3] = experiment: PDS Chemmap after treatment of live K562 cells with unmodified PDS (competition); format: cell-based, human; conditions: unmodified PDS 4 μM for 3 hr
Procedure: as §1
(§2) Probe-1st Ab complex assembly. Compound stock solution in DMSO was diluted to 10 μM in antibody buffer (2 mM EDTA, 0.1% BSA (Sigma, A8577), 0.05% digitonin (EMD Millipore, 300410) in wash buffer). […]

DNA G-quadruplex [4] = experiment: Chemmap genome-wide mapping of G4 ligand binding sites (PDS, PhenDC3); set-up: species or system human; conditions: K562 cells; biotinylated probes
Procedure: as §1, §2

Compound: Nc1cc(F)ccc1NC(=O)c1ccc(CNC(=O)/C=C/c2cccnc2)cc1 [Tucidinostat]
effect on doxorubicin binding (differential binding analysis) (K562 cells): enhances the binding of doxorubicin | Dox-bio1 binding sites within initial open chromatin region (K562 cells; 95% in vehicle group): 42%

Compound: Cc1sc2c(c1C)C(c1ccc(Cl)cc1)=N[C@@H](CC(=O)NCCCNC(=O)OC1CC/C=C\CCC1)c1nnc(C)n1-2 (stereo partly shown) [JQ1-TCO]
signal averaged at BRD4 CUT&Tag high confidence loci (BRD4 [1]): close to the baseline

Compound: NCCOc1cc(NC(=O)c2cc(OCCNC(=O)CCOCCOCCOCCOCCNC(=O)CCCC[C@@H]3SC[C@@H]4NC(=O)N[C@@H]43)cc(C(=O)Nc3cc(OCCN)c4ccccc4n3)n2)nc2ccccc12 [PDS-bio]
ΔTm on dsDNA (dsDNA): 0 °C

Compound: C[n+]1cc(NC(=O)c2ccc3ccc4c(NCCCCNC(=O)CCc5cn(CCOCCOCCOCCNC(=O)CCCC[C@@H]6SC[C@@H]7NC(=O)N[C@@H]76)nn5)cc(C(=O)Nc5cc6ccccc6[n+](C)c5)nc4c3n2)cc2ccccc21 [PhenDC3-bio]
ΔTm on dsDNA (dsDNA): 0 °C

JQ1 binding sites observed in each experiment (BRD4 [2]): around 10,000
Compound: Cc1sc2c(c1C)C(c1ccc(Cl)cc1)=N[C@@H](CC(=O)NCCOCCOCCNC(=O)CCCC[C@@H]1SC[C@@H]3NC(=O)N[C@@H]31)c1nnc(C)n1-2 [JQ1-bio]

material recovered compared to other tested probes (genomic DNA; 200 nM, same condition): up to 30 fold | consensus peaks for both Dox-bio1 and ATAC-seq (genomic DNA): 12,896 | peaks located in open chromatin regions mapped by ATAC-seq (genomic DNA): 95% | high confidence Dox-bio1 binding sites (genomic DNA; depending on the probe concentration): around 14k
Compound: COc1cccc2c1C(=O)c1c(O)c3c(c(O)c1C2=O)C[C@@](O)(C(=O)COC(=O)CCCC(=O)NCCOCCOCCOCCOCCNC(=O)CCCC[C@H]1SC[C@H]2NC(=O)N[C@H]21)C[C@@H]3O[C@H]1C[C@H](N)[C@H](O)[C@H](C)O1 [Dox-bio1]

overlap of high confidence binding sites with G4-seq data (OQS) (DNA G-quadruplex [4]): ~89%
Compound: NCCOc1cc(C(=O)Nc2cc(OCCN)c3ccccc3n2)nc(C(=O)Nc2cc(OCCN)c3ccccc3n2)c1 [PDS, Pyridostatin]
PDS Chemmap sites lost compared to untreated (DNA G-quadruplex [3]): ~6000 | PDS Chemmap sites lost compared to untreated (percent) (DNA G-quadruplex [3]): 60% | ΔTm on dsDNA (dsDNA): 0 °C

overlap of high confidence binding sites with G4-seq data (OQS) (DNA G-quadruplex [4]): ~88%
Compound: C[n+]1cc(NC(=O)c2ccc3ccc4ccc(C(=O)Nc5cc6ccccc6[n+](C)c5)nc4c3n2)cc2ccccc21 [PhenDC3]
ΔTm on dsDNA (dsDNA): 0 °C
